A melting point compilation (Tetko et al.; mined from patent text by program, amines drawn as free bases though some values may be those of a salt)

Row | melting point [°C] | Structure (SMILES)
1 | 71 to 75 | Cc1ccc(S(=O)(=O)N2CCC[C@@H]2C(=O)N[C@H](Cc2ccccc2)C(=O)O)cc1
2 | 44 to 47 | CCCCCCCCCCCCCCCC(=O)OC(COCc1ccc(OC)cc1)COC(=O)CCCCCCCCCCCNC(=O)OCc1ccccc1 (configuration not stated)
3 | 91 to 94 | Cc1noc(NS(=O)(=O)c2ccccc2[N+](=O)[O-])c1C
4 | 81.5 to 82 | Oc1ccc(Oc2ccccc2F)cc1
5 | 105 | CN(C)CCCCN1CCOc2cc3ncc(C#N)c(Nc4ccc(F)c(Cl)c4)c3cc21
6 | 193 to 195 | O=C(O)C1(c2ccccc2)Cc2ccccc2C1
7 | 130 | CCOC(=O)c1c(Cc2cc3c(cc2Cl)OCO3)c(-c2ccccc2)nn1CC1CCCCC1
8 | > 300 | CC(C)CNC1NC(=O)N(c2ccccc2C(=O)O)C(=O)N1
9 | 155 to 158 | CCC(=O)c1ccccc1CS(=O)(=O)NC(=O)Nc1nc(OC)cc(OC)n1
10 | 119 to 121 | CCN1OCC(=O)N(c2cc(Cl)ccc2C)C1=S
11 | 120 to 122 | Cc1ccc(S(=O)(=O)OCC2Cc3cccc(C=Cc4ccccc4)c3O2)cc1 (configuration not stated)
12 | 163 to 164 | O=C(Oc1cc(OC(=O)c2cc(O)c(O)c(O)c2)c2ccccc2c1)c1cc(O)c(O)c(O)c1
13 | 76 to 83 | COc1ccc(C2(C)CCc3cc(OC)ccc3C2CCCCCCO)cc1 (configuration not stated)
14 | 131 to 133 | CC(=O)c1cc(N2CCCC2)ccc1NC(=O)c1cccc(OCc2ccccc2)c1
15 | 185 to 186 | O=C(O)c1cccc(-c2ccc(F)c3cc(Cc4cc(F)cc(Cl)c4)sc23)c1
16 | 191 | COc1cc(-c2nc3ccc(O)cc3n2Cc2ccccc2C(F)(F)F)cc(OC)c1OC
17 | 237 to 239 | COc1ccc2c(c1)-c1ncc(C(=O)O)c(=O)n1CC2
18 | 272 to 274 | Nn1c2c(c3ccccc3c1=O)C(=O)c1ccccc1-2
19 | 157 to 158 | COc1ccc(N2CCCN(/C(C)=C(/C#N)C(N)=S)CC2)cc1
20 | 193 to 194 | CN1CCN(c2ccccc2C=CC(=O)NCc2ccc(Cl)cc2)CC1
21 | 268 to 269 | O=c1[nH]nc(-c2cccc(Cl)c2)c2ncccc12
22 | 280 | CC1(C)OC(=C(C#N)C#N)C(C#N)=C1c1ccc(-n2cc(-c3ccccc3)nn2)cc1
23 | 261 to 262 | Nc1nc(N)nc(C23CC4CC(CC(C4)C2)C3)n1

Row | melting point [°C] | Structure (SMILES)
24 | 150 to 155 | Nc1nc(N2CCNCC2)c2nc(-c3ccccc3)c(N)nc2n1
25 | 263 to 265 | N=C(N)Nc1ccc(C(=O)Nc2ncc(Cl)[nH]2)cc1
26 | 188 to 189 | Cc1cnc(CNC(=O)c2sc(-n3cnn(Cc4ccc(F)cc4)c3=O)nc2C)cn1
27 | 70 | O=C(O)CCc1cccc(C(=O)c2ccccc2)c1
28 | 108 to 110 | CCOC(=O)C(=Cc1cccn2c(Br)c(C)nc12)N=[N+]=[N-]
29 | 293 to 294 | O=C(O)c1ccc(-c2nc(-c3ccc(C(F)(F)F)cc3)no2)cc1
30 | 170 to 172 | CC(=O)Nc1cc(C(C)(C)C)nn1C(=NOS(=O)(=O)c1ccc(C)cc1)C(C)CN1C(=O)c2ccccc2C1=O (configuration not stated)
31 | 195 to 196 | CC(C)CNC(=S)Nc1cccc(NC(=O)Nc2ccc(Cl)cc2)c1
32 | 121 to 123 | CCCc1c(OCCCSc2ccc(C(=O)CCC(=O)O)cc2)ccc(C(C)=O)c1OC(C)=O
33 | 46 to 48 | COc1cc(CC2SC(=O)NC2=O)ccc1OCCN1c2ccccc2Sc2ccccc21 (configuration not stated)
34 | 350 to 355 | O=C(O)C=Cc1ccc(C=CC(=O)O)c2ccccc12
35 | 213 | N=C(NO)c1ncn2c(C(F)(F)F)cc(-c3ccc(C(F)(F)F)cc3)nc12
36 | 166 to 169 | Nc1ccccc1NC(=O)c1cc2cc(OCCN3CCOCC3)ccc2s1
37 | 201 to 210 | O=C(Cc1c[nH]c2ccccc12)N1CCN(C(=O)c2cc(C(F)(F)F)cc(C(F)(F)F)c2)[C@H](Cc2ccccc2)C1
38 | 162 | Cc1cc(Nc2ccnc(Nc3ccc(S(=O)(=O)N4CCC(C(O)c5ccncc5)CC4)cc3)n2)ccc1F (configuration not stated)
39 | 97 to 99 | COc1nc(C)c(C)nc1N(C)C(=O)N1CCN(c2cc(Cl)cc(Cl)c2)CC1
40 | 208 to 210 | N#Cc1c(N)nn(-c2c(Cl)cc(C(F)(F)F)cc2Cl)c1N
41 | 124 to 126 | CC(C)(C)NC(=O)c1ccccc1-c1ccc(CBr)cc1
42 | 79 | CCOC(=O)C1=C(N(C)C)N=C(C)C(C(=O)OCC)C1c1cccc(Cl)c1 (configuration not stated)
43 | 104 to 107 | C=CCN(c1ccccc1C=C(SC)S(C)=O)c1c(Cl)cccc1Cl (configuration not stated)
44 | 255 to 257 | O=c1ncn(Cc2ccc(Cl)cc2)c2cc(-c3ccc(OCc4cccnc4)cc3)sc12
45 | 88 to 89 | N#CC(=CNC1CC1)C(=O)c1cc(F)c(F)c(F)c1F
46 | 295 to 297 | CCOc1ccccc1-c1nc2c(C(N)=O)ccnc2c(=O)[nH]1

Row | melting point [°C] | Structure (SMILES)
47 | 68.5 to 69.5 | CC(CCCCCCCCCC(=O)O)CC(=O)O (configuration not stated)
48 | 188 to 190 | O=C(Nc1ccc(Cc2nnn[nH]2)cc1)C(F)(F)C(F)(F)C(F)(F)C(F)(F)C(F)(F)C(F)(F)C(F)(F)C(F)F
49 | 185 to 193 | COc1ccc(-c2sc3c(c2CN(C)Cc2ccccc2)c(=O)c(C(C)=O)cn3Cc2ccccc2F)cc1
50 | 66 to 67 | C#CCOc1cc(C=O)ccc1OC
51 | 94 to 97 | CCCC1C/C(=C\C(=O)NC2CC2)c2cc(F)ccc21 (configuration not stated)
52 | 141 to 142 | CCOC(=O)c1cnn2c1N(C(=O)CCl)CC=C2c1cccc(C(F)(F)F)c1
53 | 176 to 179 | CC(C)(C)CC(C)(C)c1cc(N=Nc2ccc(-c3ccccc3)cc2[N+](=O)[O-])c(O)c(C(C)(C)c2ccccc2)c1
54 | 58 to 59 | COC(=O)C=Cc1ccc(OCCCCl)cc1
55 | 219 to 220 | COc1ccc(S(=O)(=O)N2CCc3cccc(NC(=O)c4ccncc4)c32)cc1
56 | 106 | O=C(O)C(Oc1ccc(F)c(C(F)(F)F)c1)c1ccc(Cl)cc1 (configuration not stated)
57 | 191 to 193 | O=C(O)C1=Cc2cc(Cl)cc(F)c2OC1C(F)(F)F (configuration not stated)
58 | 133 to 134 | CN(C)C(=O)c1c(-c2ccccc2)ccc2ccccc12
59 | 137 | CCCCCc1cnc(-c2ccc(-c3ccc(Br)cc3)cc2)nc1
60 | 334 to 336 | O=c1[nH]c2ccc(Br)cc2c(=O)n1CCS
61 | 136 to 138 | Cc1cc2c(cc1O)C(C1(CC3CCCC3)CC1)N(C)CC2 (configuration not stated)
62 | 275 | O=P(O)(O)C1(P(=O)(O)O)CCCCCN1
63 | 165 to 167 | CC(C)(C)OC(=O)N1CCN(c2ccc3nc(-c4cccs4)cn3n2)CC1
64 | 252 to 254 | O=C(O)c1cnc(Nc2cccc(C(F)(F)F)c2)[nH]c1=O
65 | 94 to 97 | O=C(c1ccccc1)c1cc(Cl)ccc1CCCN1C(=O)c2ccccc2C1=O
66 | 94 to 96 | Nc1ncc(Br)cc1Cl
67 | 163 to 167 | O=S1(=O)Cc2ccc(F)cc2C(c2ccc(F)cc2)=NN1CCCc1ccccc1
68 | 78 to 78.5 | CCOCc1nc2c(N)nc(C)c(C)c2n1CCOCCCc1cccnc1
69 | 305 to 309 | CC(C)(C)C1=CC(=Nc2ccc(C(=O)O)cc2)C=C(C(C)(C)C)C1=O

Row | melting point [°C] | Structure (SMILES)
70 | 110 to 113 | Cn1cc(-c2ccc(C(F)(F)F)cc2)c(=O)c(-c2cccc(C(F)(F)F)c2)c1
71 | 150 to 152 | CN(C)S(=O)(=O)c1ccc2c(c1)C(O)c1ccccc1C=C2 (configuration not stated)
72 | 99.5 to 100 | CCCOc1cc(C#N)ccc1C(C)=O
73 | 141 to 142 | Cc1oc(-c2ccccc2)nc1COc1ccc2c(c1)CCC(CO)=C2
74 | 138 to 139 | N#Cc1cc(O)cc(F)c1
75 | 251 to 254 | CCCc1nc2c(N)nc3ccc(-c4ccc(NC(C)=O)cc4)cc3c2s1
76 | 242 to 245 | Cn1c(-c2ccccn2)cc(O)c(C(=N)c2ccccc2)c1=O
77 | 135 to 140 | NCC1Cc2cccc(-c3ccc4ccccc4c3)c2O1 (configuration not stated)
78 | 117 | C=CCc1c(C(F)(F)F)[nH]n(-c2ccc(Br)c(Cl)c2)c1=O
79 | 202 to 212 | CCCN1CCC(Cc2ccc3c(c2)c(Cc2ccc(C(=O)O)cc2OC)cn3C)C1=O (configuration not stated)
80 | 131 to 133 | CC(C)CCSC1CC(CO)OC1n1ccc(=O)[nH]c1=O (configuration not stated)
81 | 152 to 154 | CCCCCCCC1=CC(=O)N(c2ccccc2)C1(O)CBr (configuration not stated)
82 | 103 to 106 | CC12CC=C3c4ccc(O)cc4CCC3(C=C(F)F)C1CCC2O (configuration not stated)
83 | 250 to 252 | C[Si](C)(CCCc1nnc(N)nc1O)c1ccccc1
84 | 116 to 118 | O=C(C=Cc1cccc(Cl)c1Cl)c1ccc(OC2CCCCO2)cc1 (configuration not stated)
85 | 249 to 252 | CCC(=O)NC(C)(C)c1ccc(C(=O)Nc2cn3cc(Cl)ccc3n2)cc1
86 | 117 to 118 | OC(Cn1cncn1)(c1ccc(Cl)cc1)C(F)(F)F (configuration not stated)
87 | 86 | CCOC(=O)Cc1ccc(OCc2ccccc2)c2c1OCCO2
88 | 196 to 197 | Cc1[nH]c2ccccc2c1C(=O)CCn1ccnc1
89 | 178 | CSc1ncc(S(=O)(=O)NC(C)(C)C)c(Nc2cccc(C)c2)n1
90 | 200 to 203 | Cc1oc2c(NC(=O)c3c(Cl)cccc3Cl)cccc2c1CN
91 | 180 to 181 | COc1cc(CC(=O)NCCOc2ccc(C(=O)O)cc2OC)ccc1NC(=O)Nc1ccccc1C
92 | 130 | O=C1N(c2cc(Cl)nc(Cl)c2)C(=O)[C@@]2(Cc3ccc(OC(F)(F)F)cc3)C[C@H](n3cccc3)CN12

Row | Structure (SMILES) | melting point [°C]
93 | CCC1(N2C(=O)c3ccccc3C2=O)C(=O)NC(=O)N(C2CCCCC2)C1=O (configuration not stated) | 248 to 253
94 | Cc1ccc(S(=O)(=O)NC(=O)NC2N=C(c3ccccc3)c3ccccc3N(C)C2=O)cc1 (configuration not stated) | 244 to 246
95 | CCOC(=O)c1ncn2c1CN(Cc1ccc(OC)cc1OC)C(=O)c1c(Cl)cccc1-2 | 129 to 130
96 | COc1ccc(N2C(=O)CCNc3ccc(Cl)cc32)cc1 | 198 to 199
97 | COCn1ncc2cc(Cl)c(NC(=O)c3cc(C(F)(F)F)nn3-c3ncccc3Cl)c(C(=O)NC(C)C)c21 | 180 to 182
